Source: PMC10486429, “Investigations Using Albumin Binders to Modify the Tissue Distribution Profile of Radiopharmaceuticals Exemplified with Folate Radioconjugates” (Cancers, 2023)

Tested on: KB tumor-bearing athymic nude mice
Experiment: Biodistribution of 177Lu-RedFols in KB tumor-bearing mice
Format: in vivo, mouse
Procedure: Athymic nude mice (Crl:CD1-Foxn^nu) were kept on a folate-deficient rodent diet (ssniff Spezialdiäten GmbH, Soest, Germany) for at least one week prior to inoculation with the tumor cells. Biodistribution studies were performed approx. two weeks after subcutaneous inoculation with KB tumor cells (5 × 10^6 in 100 μL PBS) (Supplementary Materials Section S12). […] Data were presented as the average ± SD of n = 3−4 mice.
Purpose: Biodistribution studies were performed in KB tumor-bearing athymic nude mice (Crl:CD1-Foxnnu) in order to investigate the tissue distribution profiles of the novel radioconjugates. The aim was to compare the impact of the two different albumin binders (4-(p-iodophenyl)butanoate unit vs. 5-(p-iodophenyl)pentanoate unit), and that of the in-corporation of an AMBA linker adjacent to the albumin binder on the distribution profile of the resulting folate radioconjugates.
Methods: The methods are described in the main article. The mice were sacrificed at […]

CN1c2c(nc(N)[nH]c2=O)NC[C@H]1CNc1ccc(C(=O)N[C@@H](CCC(=O)N[C@@H](CCCCNC(=O)CN2CCN(CC(=O)O)CCN(CC(=O)O)CCN(CC(=O)O)CC2)C(=O)N[C@@H](CCCCNC(=O)c2ccc(CNC(=O)CCCc3ccc(I)cc3)cc2)C(=O)O)C(=O)O)cc1 [[^177Lu]Lu-6R-RedFol-3, metal not drawn]
Tumor-to-kidney ratio, comparison among all folate radioconjugates: highest tumor-to-kidney ratio
Blood, accumulated activity (1 h p.i.): 26 ± 3 % IA/g
Bone, accumulated activity (1 h p.i.): 1.8 ± 0.5 % IA/g
Intestines, accumulated activity (1 h p.i.): 2.6 ± 0.8 % IA/g
KB tumor, accumulated activity (1 h p.i.): 8.5 ± 1.9 % IA/g
Kidneys, accumulated activity (1 h p.i.): 8.0 ± 1.3 % IA/g
Liver, accumulated activity (1 h p.i.): 3.7 ± 0.4 % IA/g
Lung, accumulated activity (1 h p.i.): 11 ± 1 % IA/g
Muscle, accumulated activity (1 h p.i.): 1.0 ± 0.1 % IA/g
Salivary glands, accumulated activity (1 h p.i.): 5.2 ± 1.5 % IA/g
Spleen, accumulated activity (1 h p.i.): 2.9 ± 0.4 % IA/g
Stomach, accumulated activity (1 h p.i.): 1.9 ± 0.5 % IA/g
Tumor-to-blood ratio (1 h p.i.): 0.33 ± 0.03
Tumor-to-kidney ratio (1 h p.i.): 1.1 ± 0.1
Tumor-to-liver ratio (1 h p.i.): 2.3 ± 0.4
Blood, accumulated activity (4 h p.i.): 17 ± 1 % IA/g
Bone, accumulated activity (4 h p.i.): 1.8 ± 0.1 % IA/g
Intestines, accumulated activity (4 h p.i.): 2.0 ± 0.2 % IA/g
KB tumor, accumulated activity (4 h p.i.): 18 ± 2 % IA/g
Kidneys, accumulated activity (4 h p.i.): 7.6 ± 0.4 % IA/g
Liver, accumulated activity (4 h p.i.): 3.0 ± 0.1 % IA/g
Lung, accumulated activity (4 h p.i.): 8.2 ± 0.6 % IA/g
Muscle, accumulated activity (4 h p.i.): 1.3 ± 0.1 % IA/g
Salivary glands, accumulated activity (4 h p.i.): 4.2 ± 0.1 % IA/g
Spleen, accumulated activity (4 h p.i.): 2.2 ± 0.2 % IA/g
Stomach, accumulated activity (4 h p.i.): 1.5 ± 0.1 % IA/g
Tumor-to-blood ratio (4 h p.i.): 1.1 ± 0.1
Tumor-to-kidney ratio (4 h p.i.): 2.4 ± 0.2
Tumor-to-liver ratio (4 h p.i.): 6.0 ± 0.8
Blood, accumulated activity (24 h p.i.): 7.9 ± 0.7 % IA/g
Bone, accumulated activity (24 h p.i.): 1.1 ± 0.1 % IA/g
Intestines, accumulated activity (24 h p.i.): 0.96 ± 0.15 % IA/g
KB tumor, accumulated activity (24 h p.i.): 39 ± 4 % IA/g
Kidneys, accumulated activity (24 h p.i.): 12 ± 2 % IA/g
Liver, accumulated activity (24 h p.i.): 1.9 ± 0.3 % IA/g
Lung, accumulated activity (24 h p.i.): 4.1 ± 0.1 % IA/g
Muscle, accumulated activity (24 h p.i.): 1.0 ± 0.1 % IA/g
Salivary glands, accumulated activity (24 h p.i.): 4.0 ± 1.1 % IA/g
Spleen, accumulated activity (24 h p.i.): 2.2 ± 0.1 % IA/g
Stomach, accumulated activity (24 h p.i.): 1.1 ± 0.1 % IA/g
Tumor-to-blood ratio (24 h p.i.): 5.0 ± 0.4
Tumor-to-kidney ratio (24 h p.i.): 3.3 ± 0.4
Tumor-to-liver ratio (24 h p.i.): 21 ± 1

CN1c2c(nc(N)[nH]c2=O)NC[C@H]1CNc1ccc(C(=O)N[C@@H](CCC(=O)N[C@@H](CCCCNC(=O)CN2CCN(CC(=O)O)CCN(CC(=O)O)CCN(CC(=O)O)CC2)C(=O)N[C@@H](CCCCNC(=O)CCCCc2ccc(I)cc2)C(=O)O)C(=O)O)cc1 [[^177Lu]Lu-6R-RedFol-24, metal not drawn]
Blood, accumulated activity (1 h p.i.): 9.0 ± 1.2 % IA/g
Bone, accumulated activity (1 h p.i.): 1.2 ± 0.1 % IA/g
Intestines, accumulated activity (1 h p.i.): 1.2 ± 0.3 % IA/g
KB tumor, accumulated activity (1 h p.i.): 17 ± 2 % IA/g
Kidneys, accumulated activity (1 h p.i.): 36 ± 4 % IA/g
Liver, accumulated activity (1 h p.i.): 2.6 ± 0.7 % IA/g
Lung, accumulated activity (1 h p.i.): 4.6 ± 0.3 % IA/g
Muscle, accumulated activity (1 h p.i.): 1.4 ± 0.1 % IA/g
Salivary glands, accumulated activity (1 h p.i.): 6.4 ± 0.1 % IA/g
Spleen, accumulated activity (1 h p.i.): 1.3 ± 0.2 % IA/g
Stomach, accumulated activity (1 h p.i.): 1.5 ± 0.1 % IA/g
Tumor-to-blood ratio (1 h p.i.): 2.0 ± 0.4
Tumor-to-kidney ratio (1 h p.i.): 0.48 ± 0.02
Tumor-to-liver ratio (1 h p.i.): 6.9 ± 1.6
Blood, accumulated activity (4 h p.i.): 3.2 ± 1.8 % IA/g
Bone, accumulated activity (4 h p.i.): 0.87 ± 0.21 % IA/g
Intestines, accumulated activity (4 h p.i.): 0.83 ± 0.37 % IA/g
KB tumor, accumulated activity (4 h p.i.): 34 ± 6 % IA/g
Kidneys, accumulated activity (4 h p.i.): 57 ± 5 % IA/g
Liver, accumulated activity (4 h p.i.): 1.9 ± 0.4 % IA/g
Lung, accumulated activity (4 h p.i.): 2.4 ± 1.1 % IA/g
Muscle, accumulated activity (4 h p.i.): 1.3 ± 0.2 % IA/g
Salivary glands, accumulated activity (4 h p.i.): 8.7 ± 0.9 % IA/g
Spleen, accumulated activity (4 h p.i.): 0.83 ± 0.25 % IA/g
Stomach, accumulated activity (4 h p.i.): 1.4 ± 0.5 % IA/g
Tumor-to-blood ratio (4 h p.i.): 12 ± 5
Tumor-to-kidney ratio (4 h p.i.): 0.59 ± 0.04
Tumor-to-liver ratio (4 h p.i.): 18 ± 3
Blood, accumulated activity (24 h p.i.): 0.06 ± 0.01 % IA/g
Bone, accumulated activity (24 h p.i.): 0.49 ± 0.09 % IA/g
Intestines, accumulated activity (24 h p.i.): 0.28 ± 0.11 % IA/g
KB tumor, accumulated activity (24 h p.i.): 33 ± 2 % IA/g
Kidneys, accumulated activity (24 h p.i.): 62 ± 11 % IA/g
Liver, accumulated activity (24 h p.i.): 1.2 ± 0.2 % IA/g
Lung, accumulated activity (24 h p.i.): 0.60 ± 0.07 % IA/g
Muscle, accumulated activity (24 h p.i.): 0.75 ± 0.20 % IA/g
Salivary glands, accumulated activity (24 h p.i.): 4.5 ± 0.8 % IA/g
Spleen, accumulated activity (24 h p.i.): 0.51 ± 0.13 % IA/g
Stomach, accumulated activity (24 h p.i.): 0.54 ± 0.12 % IA/g
Tumor-to-blood ratio (24 h p.i.): 583 ± 105
Tumor-to-kidney ratio (24 h p.i.): 0.54 ± 0.07
Tumor-to-liver ratio (24 h p.i.): 28 ± 7
